Data taken from patent US20160320384A1, “METHODS FOR ASSAYING IMMUNOLOGICAL COMPETENCE” (YEDA RESEARCH AND DEVELOPMENT CO. LTD., priority 2013, published 2016).

Tests used:
serum IgM antibodies = experiment: Serum IgM antibody binding to oligonucleotides on antigen microarray; set-up: species or system human; details: for IgM reactivities compared to T17: individual subjects (FIGS. 5A-B); for IgM binding compared to G17: individual subjects (FIG. 4)
Protocol: (§1) In a follow-up study, sera samples obtained from 23 healthy subjects, 24 SSc patients, and 49 SLE patients were tested using an antigen microarray that included 58 single-stranded oligonucleotides. Overall, 60 SLE patients, 26 SSc patients, 18 PV patients, and 31 healthy subjects were tested.
(§2) In a follow-up study, 58 different oligonucleotides, as well as double and single stranded DNA, in various lengths (104 different preparations overall), were spotted on epoxy-activated glass substrates (ArrayIt SuperEpoxi microarray substrate slides, Sunnyvale, Calif.). […] The microarrays were then blocked for 1 hour at 37° with 1% bovine serum albumin. Test serum samples in 1% Bovine Serum Albumin (BSA) blocking buffer (1:10 dilution) were incubated under a coverslip for 1 hour at 37°. The arrays were then washed and incubated for 1 hour at 37° with a 1:500 dilution of two detection antibodies, mixed together: a goat anti-human IgG Cy3-conjugated antibody, and a goat anti-human IgM Cy5-conjugated antibody (both purchased from Jackson ImmunoResearch Laboratories Inc., West Grove, Pa.). Image acquisition was performed by laser (Agilent Technologies, Santa Clara, Calif.) and the results were analyzed using Quantarray software (Packard BioChip Technologies, Billerica, Mass.). The quantitative range of signal intensity of binding to each antigen spot was 0-65,000; this range of detection made it possible to obtain reliable data at a 1:10 dilution of test serum samples.
(§3) Alternatively, oligonucleotides and double and single stranded DNA in various chain lengths were spotted on epoxyhexyltriethoxysilane (EHTES) activated slides. The microarrays were then blocked for 1 hour at room temperature with 1% casein. Test serum samples in 1% casein blocking buffer (1:20 dilution) were incubated under a coverslip for 1 hour at 37°. The arrays were then washed and incubated for 1 hour at 37° with a 1:500 dilution of two detection antibodies, mixed together: a goat anti-human IgG Cy3-conjugated antibody, and a goat anti-human IgM AF647-conjugated antibody (both purchased from Jackson ImmunoResearch Laboratories Inc., West Grove, Pa.). Image acquisition was performed by laser at two wavelengths 530 nm and 630 nm (Agilent Technologies, Santa Clara, Calif.) and the results were analyzed using Genepix Pro 7.0 software with default settings. The quantitative range of signal intensity of binding to each antigen spot was 0-65,000; this range of detection made it possible to obtain reliable data at a 1:20 dilution of test samples.
(§4) Each spot's intensity is represented by its pixels' mean after subtraction of its local background median, followed by Log 2 transform. Negative spots (following background subtraction) are imputed with background-like intensity. The foreground and background intensities of multiple spots of each antigen were averaged, and the difference between the foreground and the background was calculated.

serum IgG antibodies = experiment: Serum IgG antibody binding to oligonucleotides on antigen microarray; set-up: species or system human; details: for IgG reactivities compared to T17: individual subjects (FIGS. 5A-B); for IgG binding compared to G17: individual subjects (FIG. 4)
Protocol: as §1, §2, §3, §4

poly-G autoantibody = experiment: Poly-G autoantibody levels in kidney transplanted patients at baseline and 24 weeks after transplantation and immunosuppression (antigen microarray); format: in vivo, human; set-up: reduction in G14 IgM autoantibody intensity / reduction in G14 IgG autoantibody intensity / reduction in G40 IgM autoantibody intensity: concentration or dose not given beside the values
[1] = median intensity, 24 weeks after Tx vs baseline
[2] = both studies combined: 60 SLE, 26 SSc, 18 PV patients, 31 healthy subjects
[3] = healthy subjects, SSc and PV patients (FIG. 1)

T16G2: modified T17 oligonucleotide (DNA TTTTTTTTTTTTTTTTGG; listed as DNA, chemistry not fully specified)
IgM reactivities compared to T17 (serum IgM antibodies): also increased compared to T17 | IgG reactivities compared to T17 (serum IgG antibodies): also increased compared to T17

G1T16: poly-T chain with a single G at the 5′ end (DNA GTTTTTTTTTTTTTTTT; listed as DNA, chemistry not fully specified)
IgM reactivities compared to T17 (serum IgM antibodies): increased in almost all the subjects | IgG reactivities compared to T17 (serum IgG antibodies): increased in almost all the subjects

CGCGCGCGCGCGCGCGCGCG (listed as DNA, chemistry not given here) [(CG)10]
IgM reactivities (serum IgM antibodies; healthy subjects, SSc and SLE patients (FIG. 6)): high in all but one of the healthy subjects, in all of the SSc patients and in most of the SLE patients | IgG reactivities (serum IgG antibodies; group of SLE patients, mainly positive for anti-dsDNA (FIG. 6)): high IgG reactivities

belatacept
patients in whom the reduction in poly-G autoantibody intensity was observed (poly-G autoantibody; 6 months post immunosuppression administration, 6 patients per group): observed in all belatacept patients | reduction in autoantibodies median intensity, combined poly-G reactivity (poly-G autoantibody; FIGS. 12A-B, 24 weeks after Tx vs baseline, belatacept vs CsA): greater reduction | Antibody level 24 weeks after transplantation and drug administration compared to baseline (%, median intensity): IgG levels against G14 (SEQ ID NO: 41) (poly-G autoantibody; kidney transplanted patients, serum, 24 weeks after Tx vs baseline, IgG, G14): 53% | Antibody level 24 weeks after transplantation and drug administration compared to baseline (%, median intensity): IgG levels against G17 (SEQ ID NO: 36) (poly-G autoantibody; kidney transplanted patients, serum, 24 weeks after Tx vs baseline, IgG, G17): 70% | Antibody level 24 weeks after transplantation and drug administration compared to baseline (%, median intensity): IgG levels against G20 (SEQ ID NO: 43) (poly-G autoantibody; kidney transplanted patients, serum, 24 weeks after Tx vs baseline, IgG, G20): 58% | Antibody level 24 weeks after transplantation and drug administration compared to baseline (%, median intensity): IgG levels against G30 (SEQ ID NO: 65) (poly-G autoantibody; kidney transplanted patients, serum, 24 weeks after Tx vs baseline, IgG, G30): 67% | Antibody level 24 weeks after transplantation and drug administration compared to baseline (%, median intensity): IgG levels against G40 (SEQ ID NO: 66) (poly-G autoantibody; kidney transplanted patients, serum, 24 weeks after Tx vs baseline, IgG, G40): 81% | Antibody level 24 weeks after transplantation and drug administration compared to baseline (%, median intensity): IgM levels against G14 (SEQ ID NO: 41) (poly-G autoantibody; kidney transplanted patients, serum, 24 weeks after Tx vs baseline, IgM, G14): 45% | Antibody level 24 weeks after transplantation and drug administration compared to baseline (%, median intensity): IgM levels against G17 (SEQ ID NO: 36) (poly-G autoantibody; kidney transplanted patients, serum, 24 weeks after Tx vs baseline, IgM, G17): 63% | Antibody level 24 weeks after transplantation and drug administration compared to baseline (%, median intensity): IgM levels against G20 (SEQ ID NO: 43) (poly-G autoantibody; kidney transplanted patients, serum, 24 weeks after Tx vs baseline, IgM, G20): 63% | Antibody level 24 weeks after transplantation and drug administration compared to baseline (%, median intensity): IgM levels against G30 (SEQ ID NO: 65) (poly-G autoantibody; kidney transplanted patients, serum, 24 weeks after Tx vs baseline, IgM, G30): 59% | Antibody level 24 weeks after transplantation and drug administration compared to baseline (%, median intensity): IgM levels against G40 (SEQ ID NO: 66) (poly-G autoantibody; kidney transplanted patients, serum, 24 weeks after Tx vs baseline, IgM, G40): 72% | reduction in G14 IgG autoantibody intensity (poly-G autoantibody; [1]): 47% | reduction in G14 IgM autoantibody intensity (poly-G autoantibody; [1]): 55% | reduction in G17 IgG autoantibody intensity (poly-G autoantibody; [1]): 30% | reduction in G17 IgM autoantibody intensity (FIG. 8A) (poly-G autoantibody; [1]): 37% | reduction in G20 IgG autoantibody intensity (poly-G autoantibody; [1]): 42% | reduction in G20 IgM autoantibody intensity (poly-G autoantibody; [1]): 37% | reduction in G30 IgG autoantibody intensity (poly-G autoantibody; [1]): 33% | reduction in G30 IgM autoantibody intensity (poly-G autoantibody; [1]): 41% | reduction in G40 IgG autoantibody intensity (poly-G autoantibody; [1]): 19% | reduction in G40 IgM autoantibody intensity (poly-G autoantibody; [1]): 28%

A20: 20-mer adenine homo-nucleotide (AAAAAAAAAAAAAAAAAAAA; listed as DNA, chemistry not fully specified)
IgG reactivities (serum IgG antibodies; [2]): relatively low reactivities | IgG reactivities (serum IgG antibodies; [3]): very low or no reactivities

TGGGGGGGGGGGGGGGG (listed as DNA, chemistry not given here) [T1G16]
IgM binding compared to G17 (serum IgM antibodies): essentially equal to the binding to the G17 | IgG binding compared to G17 (serum IgG antibodies): essentially equal to the binding to the G17

G16T1: G16 with a single T added at the 3′ end (GGGGGGGGGGGGGGGGT; listed as DNA, chemistry not fully specified)
IgM binding compared to G17 (serum IgM antibodies): considerably less than the binding to G17 | IgG binding compared to G17 (serum IgG antibodies): considerably less than the binding to G17

T20: 20-mer thymine homo-nucleotide (DNA TTTTTTTTTTTTTTTTTTTT)
IgG reactivities (serum IgG antibodies; [2]): relatively low reactivities | IgG reactivities (serum IgG antibodies; [3]): very low or no reactivities

G17: poly-guanine oligonucleotide antigen, 17 guanines (GGGGGGGGGGGGGGGGG; listed as DNA, chemistry not fully specified)
mean IgG reactivities as a function of chain length (serum IgG antibodies; healthy, SSc, SLE dsDNA-negative and -positive groups (FIG. 3)): fell significantly

G2T16: modified T17 oligonucleotide (DNA GGTTTTTTTTTTTTTTTT; listed as DNA, chemistry not fully specified)
IgM reactivities compared to T17 (serum IgM antibodies): also increased compared to T17 | IgG reactivities compared to T17 (serum IgG antibodies): also increased compared to T17

T16G1: poly-T chain with a single G at the 3′ end (DNA TTTTTTTTTTTTTTTTG; listed as DNA, chemistry not fully specified)
IgM reactivities compared to T17 (serum IgM antibodies): increased in almost all the subjects | IgG reactivities compared to T17 (serum IgG antibodies): increased in almost all the subjects
